# Source: ChEMBL document CHEMBL3856210, “Discovery of in vitro antitubercular agents through in silico ligand-based approaches” (Eur J Med Chem, 2016)
# Test: Antitubercular activity against Mycobacterium tuberculosis H37Ra ATCC 25177 after 21 days by agar dilution method
# Assay type: functional
# Settings: ATCC 25177, 504 h
row,SMILES,MIC
1,COCc1nn2c(=O)cc(CCc3c(C)n[nH]c3C)[nH]c2c1-c1ccc(Cl)cc1,16 µg/mL
2,CCCc1cc(=O)n2nc(C)c(-c3ccc(OC)c(OC)c3)c2[nH]1,64 µg/mL
3,Cc1nn2c(=O)cc(Cc3ccsc3)[nH]c2c1-c1ccc(Cl)cc1,32 µg/mL
4,Cc1cccc(-c2nn3c(=O)cc(CCc4c(C)n[nH]c4C)[nH]c3c2C)c1,64 µg/mL
5,Cc1n[nH]c(C)c1CCc1cc(=O)n2nc(C)c(-c3ccc(Cl)cc3)c2[nH]1,8 µg/mL
6,Cc1c(-c2cccc(Cl)c2)nn2c(=O)cc(CCCN3CCOCC3)[nH]c12,32 µg/mL
7,COc1ccc(-c2cnn3c(=O)c4c([nH]c23)CCCC4)cc1OC,32 µg/mL
8,Fc1ccc([C@H](c2cn(Cc3ccccc3)nn2)n2ccnc2)cc1,64 µg/mL
9,Fc1ccc([C@H](c2cn(-c3ccccc3)nn2)n2ccnc2)cc1,32 µg/mL
10,CC1=NN(c2ccc(Cl)cc2)C(=O)/C1=C(/c1ccc(Cl)cc1)N1CCOCC1,4 µg/mL
11,CC1=NN(c2ccc(Cl)cc2)C(=O)/C1=C(/c1ccc(Cl)cc1)N1CCSCC1,8 µg/mL
12,CC1=NN(c2ccc(Cl)cc2)C(=O)/C1=C(/c1ccc(Cl)cc1)N1CCC(C)CC1,64 µg/mL
13,CC1=NN(c2ccccc2)C(=O)/C1=C(/c1ccc(Cl)cc1)N1CCN(C)CC1,8 µg/mL
14,CC1=NN(c2ccccc2)C(=O)/C1=C(/c1ccc(Cl)cc1)N1CCOCC1,16 µg/mL
15,CC1=NN(c2ccc(Cl)cc2)C(=O)/C1=C(/c1ccc(Cl)cc1)N1CCN(C)CC1,4 µg/mL
16,CC1=NN(c2ccc(Cl)cc2)C(=O)/C1=C(/c1ccc(Cl)cc1)N1CCCCC1,> 64 µg/mL
17,CC1=NN(c2ccc(Cl)cc2)C(=O)/C1=C(/c1ccc(Cl)cc1)N(C)C,16 µg/mL
18,CC1=NN(c2ccccc2)C(=O)/C1=C(/c1ccc(Cl)cc1)N1CCSCC1,8 µg/mL
19,CC1=NN(c2ccccc2)C(=O)/C1=C(/c1ccc(Cl)cc1)N(C)C,32 µg/mL
20,O=C(COc1ccccc1)OC(Cn1ccnc1)c1ccc(Cl)cc1 (racemic),64 µg/mL
21,O=C(OC(Cn1ccnc1)c1ccc(Cl)cc1)N1CCN(c2ccc([N+](=O)[O-])cc2)CC1 (racemic),16 µg/mL
22,O=C(OC(Cc1ccccc1)c1ccc(Cl)cc1)N1CCN(c2ccc(Cl)c(Cl)c2)CC1 (racemic),64 µg/mL
23,O=C(OC(Cn1ccnc1)c1ccc(Cl)cc1)N1CCN(c2ccc(Cl)c(Cl)c2)CC1 (racemic),4 µg/mL
24,O=C(OC(Cn1cccc1)c1ccc(Cl)cc1)N1CCN(c2ccc(Cl)c(Cl)c2)CC1 (racemic),64 µg/mL

# Test: Drug level in human liver microsomes assessed as CYP450-mediated compound formation treated with (+/-)-1-(4-Chlorophenyl)-2-(1H-imidazol-1-yl)ethyl-4-(3,4-dichlorophenyl)piperazine-1-carboxylate at 50 uM after 60 mins in presence of NADPH by LC-MS analysis
# Assay type: ADME
# Settings: not given
row,SMILES,Drug metabolism
1,O=C(OC(c1ccc(Cl)cc1)C(O)n1ccnc1)N1CCN(c2ccc(Cl)c(Cl)c2)CC1 (stereo not given),Metabolite_Detected
